# Patent publication US20260191863A1, “PYRROLOPYRIMIDINE COMPOSITIONS FOR TREATMENT OF ITK MEDIATED CONDITIONS” (ACLARIS THERAPEUTICS, INC., priority 2022, published 2026)
# Read-outs that look alike come from different tables or passages of the source.
# Experiment: Phase 1 multiple ascending dose (MAD) study: pharmacokinetics
# Type: in vivo, human
# Settings: for AUC(0-inf) / AUC(0-t) / Cmax / Tmax: human, plasma, oral; for AUC(0-inf): read-out: Geometric Mean AUCINF_obs; for AUC(0-t): read-out: Geometric Mean AUC_0-12; for Tmax: read-out: Geometric Mean Tmax
# Text: Secondary Endpoints—Compound I plasma concentrations and PK parameters: AUC0-tau, AUC0-inf, Ctrough, Cmax, tmax, Kel, t1/2, CLss/F, Vss/F, Rae.
# Overall Design—This was a randomized, Investigator and participant-blind. Sponsor-unblinded, placebo-controlled study designed to evaluate the safety, tolerability, PK, and PD of Compound I in healthy participants. The study consisted of multiple cohorts assessing ascending doses of Compound I.
# Approximately 60 participants were enrolled into 5 cohorts. At each dose level/cohort, a total of 10 participants were randomized to receive 2 weeks of oral doses of Compound I (n=8) or placebo (n=2). In Cohort 3, 20 participants were randomized to receive multiple oral doses of Compound I QD (n=8), Compound I TID (n=8), placebo QD (n=2), or placebo TID (n=2).
# The study started with a planned dose of 5 mg twice daily (BID). Escalation to the next higher cohort was dependent on safety and PK data from all participants in the previous cohorts and was based on data from at least 6 participants up to at least 48 hours after the last dose. In no instance did the dose escalation steps exceed 3-fold the prior dose level.
# [1] = 5 mg, Cohort 1, 5 mg BID, Day 1
# [2] = 5 mg, Cohort 1, 5 mg BID, Day 7
# [3] = 5 mg, Cohort 1, 5 mg BID, Day 15
# [4] = 15 mg, Cohort 2, 15 mg BID, Day 1
# [5] = 15 mg, Cohort 2, 15 mg BID, Day 7
# [6] = 15 mg, Cohort 2, 15 mg BID, Day 15
# [7] = 25 mg, Cohort 4, 25 mg BID, Day 1
structure (smiles),measurement,setting,value
"C=CC(=O)N1C[C@H](Nc2ncnc3[nH]cc([C@H]4CC4(F)F)c23)CC[C@@H]1C [Compound I, 1-((2S,5R)-5-((5-((R)-2,2-difluorocyclopropyl)-7H-pyrrolo[2,3-d]pyrimidin-4-yl)amino)-2-methylpiperidin-1-yl)prop-2-en-1-one]",Geometric Mean Accumulation Ratio - AUCtau (Day 15/Day 1),"Cohort 1, 5 mg BID",1.2
same,Geometric Mean Accumulation Ratio - Cmax (Day 15/Day 1),"Cohort 1, 5 mg BID",1.2
same,Geometric Mean HL_Lambda_z,"Cohort 1, 5 mg BID, Day 1",1.51 h
same,Geometric Mean HL_Lambda_z,"Cohort 1, 5 mg BID, Day 7",1.50 h
same,Geometric Mean HL_Lambda_z,"Cohort 1, 5 mg BID, Day 15",1.65 h
same,Geometric Mean Accumulation Ratio - AUCtau (Day 15/Day 1),"Cohort 2, 15 mg BID",1.6
same,Geometric Mean Accumulation Ratio - Cmax (Day 15/Day 1),"Cohort 2, 15 mg BID",1.4
same,Geometric Mean HL_Lambda_z,"Cohort 2, 15 mg BID, Day 1",1.53 h
same,Geometric Mean HL_Lambda_z,"Cohort 2, 15 mg BID, Day 7",1.66 h
same,Geometric Mean HL_Lambda_z,"Cohort 2, 15 mg BID, Day 15",1.65 h
same,Geometric Mean Accumulation Ratio - AUCtau (Day 15/Day 1),"Cohort 3a, 30 mg QD",1.3
same,Geometric Mean Accumulation Ratio - Cmax (Day 15/Day 1),"Cohort 3a, 30 mg QD",1.1
same,Geometric Mean HL_Lambda_z,"Cohort 3a, 30 mg QD, Day 1",1.90 h
same,Geometric Mean HL_Lambda_z,"Cohort 3a, 30 mg QD, Day 7",1.87 h
same,Geometric Mean HL_Lambda_z,"Cohort 3a, 30 mg QD, Day 15",1.93 h
same,Geometric Mean Accumulation Ratio - AUCtau (Day 15/Day 1),"Cohort 4, 25 mg BID",1.4
same,Geometric Mean Accumulation Ratio - Cmax (Day 15/Day 1),"Cohort 4, 25 mg BID",1.3
same,Geometric Mean HL_Lambda_z,"Cohort 4, 25 mg BID, Day 1",1.70 h
same,Geometric Mean HL_Lambda_z,"Cohort 4, 25 mg BID, Day 7",1.91 h
same,Geometric Mean HL_Lambda_z,"Cohort 4, 25 mg BID, Day 15",1.97 h
same,Geometric Mean Accumulation Ratio - AUCtau (Day 15/Day 1),"Cohort 5, 40 mg BID",1.7
same,Geometric Mean Accumulation Ratio - Cmax (Day 15/Day 1),"Cohort 5, 40 mg BID",1.4
same,Geometric Mean HL_Lambda_z,"Cohort 5, 40 mg BID, Day 1",1.78 h
same,Geometric Mean HL_Lambda_z,"Cohort 5, 40 mg BID, Day 7",1.85 h
same,Geometric Mean HL_Lambda_z,"Cohort 5, 40 mg BID, Day 15",2.34 h
same,Dose proportionality of geometric mean exposure (Cmax and AUC),MAD,increases slightly greater than dose-proportional
same,Plasma concentration dose dependence,MAD,increased in a dose-dependent manner
same,Time to peak plasma concentration after dosing,MAD,≤ 2 h
same,AUC(0-inf),[1],27 ng·h/mL
same,AUC(0-t),[1],26 ng·h/mL
same,Cmax,"5 mg, Cohort 1, 5 mg BID, Day 1, read-out: Geometric Mean Cmax",10.8 ng/mL
same,Tmax,[1],36 min
same,AUC(0-inf),[2],32 ng·h/mL
same,AUC(0-t),[2],32 ng·h/mL
same,Cmax,"5 mg, Cohort 1, 5 mg BID, Day 7, read-out: Geometric Mean Cmax",13 ng/mL
same,Tmax,[2],46.2 min
same,AUC(0-inf),[3],32 ng·h/mL
same,AUC(0-t),[3],32 ng·h/mL
same,Cmax,"5 mg, Cohort 1, 5 mg BID, Day 15, read-out: Geometric Mean Cmax",12.5 ng/mL
same,Tmax,[3],46.2 min
same,AUC(0-inf),[4],71 ng·h/mL
same,AUC(0-t),[4],71 ng·h/mL
same,Cmax,"15 mg, Cohort 2, 15 mg BID, Day 1, read-out: Geometric Mean Cmax",28.8 ng/mL
same,Tmax,[4],48.6 min
same,AUC(0-inf),[5],110 ng·h/mL
same,AUC(0-t),[5],109 ng·h/mL
same,Cmax,"15 mg, Cohort 2, 15 mg BID, Day 7, read-out: Geometric Mean Cmax",42.5 ng/mL
same,Tmax,[5],46.2 min
same,AUC(0-inf),[6],111 ng·h/mL
same,AUC(0-t),[6],110 ng·h/mL
same,Cmax,"15 mg, Cohort 2, 15 mg BID, Day 15, read-out: Geometric Mean Cmax",38.9 ng/mL
same,Tmax,[6],57.6 min
same,Cmax,"15 mg, Human 15 mg, read-out: Cmax",38.9 ng/mL
same,AUC(0-inf),[7],175 ng·h/mL
same,AUC(0-t),[7],173 ng·h/mL
same,Cmax,"25 mg, Cohort 4, 25 mg BID, Day 1, read-out: Geometric Mean Cmax",64.3 ng/mL
same,Tmax,[7],50.4 min
